What was measured:
human FPR2 = human FPR2 (Homo sapiens (Human), UniProt P25090); test: FPR2 cyclic adenosine monophosphate (cAMP) assay; assay type: cell-based; conditions: CHO cells overexpressing human FPR2; forskolin 5 µM; inhibition of cAMP production; read-out: hFPR2 cAMP2 EC50
Summary of the method: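 CHO cells overexpressing human FPR2 (2,000/well) incubated 30 min at room temperature with compound (0.020 nM–100 µM, 1% DMSO), 5 µM forskolin and 200 µM IBMX.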

human FPR1 = human FPR1 (Homo sapiens (Human), UniProt P21462); test: FPR1 cyclic adenosine monophosphate (cAMP) assay; assay type: cell-based; conditions: CHO cells overexpressing human FPR1; forskolin 10 µM; inhibition of cAMP production; read-out: hFPR1 cAMP EC50
Summary of the method: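 CHO cells overexpressing human FPR1 (4,000 cells/well) stimulated with 10 µM forskolin plus 200 µM IBMX in the presence of compound (0.020 nM–100 µM, 1% DMSO), 30 min at room temperature. Intracellular cAMP measured by HTRF. Inhibition of cAMP production fitted to a 4-parameter logistic equation.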

Sequence of human FPR2 (P25090 whole entry): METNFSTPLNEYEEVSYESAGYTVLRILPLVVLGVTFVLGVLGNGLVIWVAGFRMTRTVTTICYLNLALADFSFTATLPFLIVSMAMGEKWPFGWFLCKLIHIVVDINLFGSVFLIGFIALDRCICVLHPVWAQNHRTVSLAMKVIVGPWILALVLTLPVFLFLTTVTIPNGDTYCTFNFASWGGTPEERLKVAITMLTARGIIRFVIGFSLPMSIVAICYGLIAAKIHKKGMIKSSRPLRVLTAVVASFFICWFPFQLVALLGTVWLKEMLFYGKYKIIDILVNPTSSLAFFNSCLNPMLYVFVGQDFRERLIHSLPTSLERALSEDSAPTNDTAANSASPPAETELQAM
Sequence of human FPR1 (P21462 whole entry): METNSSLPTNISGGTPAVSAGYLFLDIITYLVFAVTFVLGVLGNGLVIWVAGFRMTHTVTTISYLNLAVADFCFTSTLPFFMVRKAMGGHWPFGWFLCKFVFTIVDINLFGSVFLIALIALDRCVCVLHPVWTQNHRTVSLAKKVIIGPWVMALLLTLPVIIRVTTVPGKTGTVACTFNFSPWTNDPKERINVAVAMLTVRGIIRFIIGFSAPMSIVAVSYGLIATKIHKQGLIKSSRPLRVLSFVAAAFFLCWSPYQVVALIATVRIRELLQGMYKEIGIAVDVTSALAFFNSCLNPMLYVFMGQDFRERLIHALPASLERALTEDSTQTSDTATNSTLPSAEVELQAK

Row | Structure (SMILES) | EC50 (human FPR2) [nM] | EC50 (human FPR1) [nM]
1 | COc1ccc([C@@H]2CN(c3c(C)ccn(CCC(F)(F)F)c3=O)C(=O)[C@H]2NC(=O)c2ccc(Cl)cc2)cc1 [Example 594] | 2.4 | 1.4
2 | CCn1ccc(C)c(N2C[C@@H](c3ccc(OC)cc3F)[C@H](NC(=O)c3ccc(OC(F)F)cc3)C2=O)c1=O [Example 165] | 4.2 | 1.7
3 | COCCn1ccc(C)c(N2C[C@@H](c3ccc(OC)cc3)[C@H](NC(=O)c3ccc(Cl)cc3)C2=O)c1=O [Example 365] | 2.6 | 1
4 | COc1cc(F)c([C@@H]2CN(c3cccn4c(C)nnc34)C(=O)[C@H]2NC(=O)c2ccc(OC(F)(F)F)cc2)c(F)c1 [Example 604] | 0.5 | 15
5 | COc1ccc([C@@H]2CN(c3cccn(CC(C)O)c3=O)C(=O)[C@H]2NC(=O)c2ccc(OC(F)(F)F)cc2)cc1 (stereo partly shown) [Example 440] | 1.3 | 11
6 | O=C(N[C@@H]1C(=O)N(c2cccn(CCC(F)(F)F)c2=O)C[C@H]1c1ccc(Cl)cc1)c1ccc(OC(F)F)cc1 [Example 72] | 1.9 | 5.7
7 | CCn1cc(C)c(C)c(N2C[C@@H](c3c(F)cc(OC)cc3F)C(NC(=O)c3ccc(OC(F)(F)F)cc3)C2=O)c1=O (stereo partly shown) [Example 639] | 5.8 | 57
8 | COCCn1cnc(C)c(N2C[C@@H](c3c(F)cc(OC)cc3F)[C@H](NC(=O)c3ccc(Cl)cc3)C2=O)c1=O [Example 521] | 9 | 330
9 | COc1ccc([C@@H]2CN(c3c(C)ccn(CCC(F)(F)F)c3=O)C(=O)[C@H]2NC(=O)c2ccc(Cl)cc2)cc1 [Example 386] | 2.4 | 1
10 | COc1cc(F)c([C@@H]2CN(c3nccc(OCC(C)(C)O)c3C(F)(F)F)C(=O)[C@H]2NC(=O)c2ccc(Cl)cc2)c(F)c1 [Example 676] | 13 | 295
11 | CCn1cccc(N2C[C@@H](c3ccc(OC)cc3F)[C@H](NC(=O)c3ccc(OC(F)(F)F)cc3)C2=O)c1=O [Example 82] | 2.2 | 5.3
12 | COc1cc(F)c([C@@H]2CN(c3c(C)ccn(CC(C)O)c3=O)C(=O)[C@H]2NC(=O)c2ccc(OC(F)(F)F)cc2)c(F)c1 (stereo partly shown) [Example 361] | 1.7 | 3
13 | CCn1cccc(N2C(=O)[C@@H](NC(=O)c3ccc(OC(F)F)cc3)[C@H](c3c(F)cc(OC)cc3F)[C@H]2C)c1=O [Example 255] | 7 | 52
14 | COc1cc(F)c([C@@H]2CN(c3c(C)ccn(CCC(F)(F)F)c3=O)C(=O)[C@H]2NC(=O)c2ccc(Cl)cc2)c(F)c1 [Example 430] | 3.3 | 5
15 | COc1ccc([C@@H]2CN(c3c(C)ccn(CCC(F)(F)F)c3=O)C(=O)[C@H]2NC(=O)c2ccc(OC(F)F)cc2)c(F)c1 [Example 402] | 2.8 | 3
16 | COCCn1ccc(C)c(N2C[C@@H](c3c(F)cc(OC)cc3F)[C@H](NC(=O)c3ccc(Cl)cc3)C2=O)c1=O [Example 633] | 1.4 | 4.3

The remaining lines, values ahead:

Row | EC50 (human FPR2) [nM] | EC50 (human FPR1) [nM] | Structure (SMILES)
17 | 6.2 | 240 | COc1cc(F)c([C@@H]2CN(c3ccc(CO)n(C)c3=O)C(=O)[C@H]2NC(=O)c2ccc(OC(F)(F)F)cc2)c(F)c1 [Example 227]
18 | 2.7 | 4 | COc1ccc([C@@H]2CN(c3cccn(CC(C)OC)c3=O)C(=O)[C@H]2NC(=O)c2ccc(OC(F)F)cc2)c(F)c1 (stereo partly shown) [Example 418]
19 | 9.6 | 4 | COCC(CO)n1nccc(N2C[C@@H](c3c(F)cc(OC)cc3F)[C@H](NC(=O)c3ccc(OC(F)(F)F)cc3)C2=O)c1=O (stereo partly shown) [Example 452]
20 | 5.7 | 140 | COc1cc(F)c([C@@H]2CN(c3cccn(CC(C)(CO)CO)c3=O)C(=O)[C@H]2NC(=O)c2ccc(OC(F)F)cc2)c(F)c1 [Example 218]
21 | 8.7 | 5.3 | COc1cc(F)c([C@@H]2CN(c3c(C)ccn(CC4CCO4)c3=O)C(=O)[C@H]2NC(=O)c2ccc(OC(F)(F)F)cc2)c(F)c1 (stereo partly shown) [Example 615]
22 | 8.6 | 4600 | COc1cc(F)c([C@@H]2CN(c3nccc(N4CCN(C)CC4)c3C#N)C(=O)[C@H]2NC(=O)c2ccc(Cl)cc2)c(F)c1 [Example 287]
23 | 45 | 85 | COc1cc(F)c([C@@H]2CN(c3cc(P(C)(C)=O)ccn3)C(=O)[C@H]2NC(=O)c2ccc(OC(F)(F)F)cc2)c(F)c1 [Example 13]
24 | 1.2 | 3 | COc1ccc([C@@H]2CN(c3c(C)ccn(CCO)c3=O)C(=O)[C@H]2NC(=O)c2ccc(OC(F)F)cc2)c(F)c1 [Example 367]
25 | 0.8 | 120 | COc1cc(F)c([C@H]2[C@H](NC(=O)c3ccc(Cl)cc3)C(=O)N(c3nccn(CC(F)F)c3=O)[C@H]2C)c(F)c1 [Example 560]
26 | 5.6 | > 5000 | COc1cc(F)c([C@@H]2CN(c3cncn(C4CCN(C)C4)c3=O)C(=O)[C@H]2NC(=O)c2ccc(Cl)cc2)c(F)c1 (stereo partly shown) [Example 721]
27 | 4.2 | 620 | COc1cc(F)c([C@H]2[C@H](NC(=O)c3ccc(OC(F)F)cc3)C(=O)N(c3cccn(CCO)c3=O)[C@H]2C)c(F)c1 [Example 445]
28 | 1.7 | 2 | COCC(C(=O)N1CCCC1)n1cccc(N2C[C@@H](c3c(F)cc(OC)cc3F)[C@H](NC(=O)c3ccc(OC(F)F)cc3)C2=O)c1=O (stereo partly shown) [Example 485]
29 | 10 | 97 | COCCn1cc(F)cc(N2C[C@@H](c3c(F)cc(OC)cc3F)[C@H](NC(=O)c3ccc(OC(F)(F)F)cc3)C2=O)c1=O [Example 322]
30 | 3.8 | 2.2 | COc1cc(F)c([C@@H]2CN(c3cccn(CC(OC)C(F)(F)F)c3=O)C(=O)[C@H]2NC(=O)c2ccc(OC(F)(F)F)cc2)c(F)c1 (stereo partly shown) [Example 147]
31 | 37 | 200 | COc1cc(F)c([C@@H]2CN(Cc3ccccc3P(C)(C)=O)C(=O)[C@H]2NC(=O)c2ccc(OC(F)F)cc2)c(F)c1 [Example 18]
32 | 15 | 1 | COc1cc(F)c([C@@H]2CN(c3c(C)ccn(CC(O)C4CC4)c3=O)C(=O)[C@H]2NC(=O)c2ccc(OC(F)F)cc2)c(F)c1 (stereo partly shown) [Example 682]
33 | 3.5 | 58 | COc1cc(F)c([C@@H]2CN(c3nc(N4CCC(O)C4=O)ccc3F)C(=O)[C@H]2NC(=O)c2ccc(OC(F)F)cc2)c(F)c1 (stereo partly shown) [Example 135]
34 | 37 | 43 | COc1cc(F)c([C@@H]2CN(c3cc(F)cc(OC(C)C)c3)C(=O)[C@H]2NC(=O)c2ccc(OC(F)(F)F)cc2)c(F)c1 [Example 14]
35 | 11 | 35 | COc1cc(F)c([C@@H]2CN(c3nc(N4CCC(O)C4=O)ccc3F)C(=O)[C@H]2NC(=O)c2ccc(OC(F)(F)F)cc2)c(F)c1 (stereo partly shown) [Example 326]
36 | 5.7 | 270 | COc1cc(F)c([C@@H]2CN(c3nc(N4CC(C)OCC4=O)ccc3F)C(=O)[C@H]2NC(=O)c2ccc(OC(F)F)cc2)c(F)c1 (stereo partly shown) [Example 216]
37 | 1.3 | 7.8 | CCn1ccc(N2C[C@@H](c3c(F)cc(OC)cc3F)[C@H](NC(=O)c3ccc(OC(F)(F)F)cc3)C2=O)n1 [Example 649]
38 | 2.3 | 1 | COc1ccc([C@@H]2CN(c3cccn(CC(OC)C(F)(F)F)c3=O)C(=O)[C@H]2NC(=O)c2ccc(OC(F)(F)F)cc2)c(F)c1 (stereo partly shown) [Example 364]

Reference: patent US20230348426A1, “OXOPYRROLIDINE FPR2 AGONISTS” (Bristol-Myers Squibb Company, priority 2020, published 2023)
